In patent publication US20240173432A1, “Compositions and Methods for Treatment of Myotonic Dystrophy Type 1 with CRISPR/SluCas9” (Vertex Pharmaceuticals Incorporated, priority 2021, published 2024):

What was measured:
[1] = test system: CUG foci in primary DM1 patient myoblasts; test: Dual-cut screening: FISH staining of CUG RNA foci; format: cell-based, human; conditions: sgRNA pair, primary DM1 patient myoblasts; for % of CUG foci free nuclei (DNA-PKi): 3 μM DNA-PKi Compound 6 for 48 hours; for % of CUG foci free nuclei (Vehicle): vehicle (DMSO)
Outline: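 SluCas9 RNPs (protein:sgRNA 1:3; 20 pmol SluCas9 + 60 pmol sgRNA per guide, paired 1:1) nucleofected into primary DM1 patient myoblasts, then DMSO or 3 μM DNA-PKi Compound 6 for 48 h. At 72 h post-nucleofection cells fixed, FISH-stained with Cy3-PNA(CAG)5 probe plus anti-MBNL1 and Hoechst; % CUG foci-free nuclei by high-content confocal imaging.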

[2] = test system: CTG repeat in the 3′ UTR of human DMPK gene; test: Dual-cut screening: CTG repeat excision efficiency by loss-of-signal ddPCR; format: cell-based; conditions: sgRNA pair, primary DM1 patient myoblasts; for Excision efficiency (by ddPCR): 3 μM DNA-PKi Compound 6 for 48 hours; for Excision efficiency by ddPCR (Vehicle): vehicle (DMSO)
Method: RNPs were assembled with recombinant SluCas9 protein and chemically modified sgRNAs at a ratio of 1:3 (protein:sgRNA). For SINGLE-cut screening, RNP complexes were assembled with 30 pmol of SluCas9 and 90 pmol of sgRNA in P5 Primary Cell Nucleofector Solution (Lonza). After incubation at room temperature for 20 minutes, 10 μL of RNP complex were mixed with two hundred thousand of primary myoblasts resuspended in 10 μL of P5 Nucleofector Solution. For DOUBLE-cut screening, RNP complexes were first assembled for individual sgRNAs with 20 pmol of SluCas9 protein and 60 pmol of sgRNAs in 5 μL of P5 Nucleofector Solution. After incubation at room temperature for 20 minutes, the two RNP complexes (one for upstream sgRNA and one for downstream sgRNA) were mixed at 1:1 ratio and then further mixed with two hundred thousand of primary myoblasts resuspended in 10 μL of P5 Nucleofector Solution.
The Nucleofector 96-well Shuttle System (Lonza) was used to deliver the SluCa9/sgRNA RNPs into primary DM1 patient myoblasts using the nucleofection program CM138. Following nucleofection, myoblasts from each well of nucleofection shuttle were split into six wells of the 96-well cell culture plate (Greiner, 655090) coated with matrigel. The first three wells were treated with DMSO for 48 hrs before changing to fresh myoblast growth medium, and the other three wells were treated with 3 μM of DNA-PKi Compound 6 for 48 hrs before changing to fresh myoblast growth medium. 72 hrs post nucleofection, two wells of DMSO-treated myoblasts and two wells of DNA-PKi-treated myoblasts from each nucleofection were harvested for genomic DNA extraction using the Kingfisher Flex purification system (Thermal Fisher), whereas one well of DMSO-treated myoblasts and one well of DNA-PKi-treated myoblasts were stained for RNA foci by FISH staining.
The primers and probes of ddPCR are designed using the online primer design software Primer3Plus (http://www.bioinformatics.nl/cgi-bin/primer3plus/primer3plus.cgi). In some embodiments, two target primers/probe sets were used to detect CTG repeat excision, and a reference primers/probe set were used to amplify a region located in Exon 1 of human DMPK gene and to serve as a reference control for the target sets. The 24 μL of ddPCR reaction consists of 12 μL of Supermix for Probes (no dUTP) (Bio-Rad Laboratories), 1 μL of Reference primers mix (21.6 μM), 1 μL of Reference probe (6 μM), 1 μL of Target primers mix (21.6 μM), 1 μL of Target probe (6 μM), and 8 μL of sample genomic DNA. Droplets were generated using probe oil with the QX200 Droplet Generator (Bio-Rad Laboratories). Droplets were transferred to a 96-well PCR plate, sealed and cycled in a C1000 deep well Thermocycler (Bio-Rad Laboratories) under the following cycling protocol: 1 cycle at 95° C. for 10 min; 40 cycles of 94° C. for 30 see, and 58° C. for 1 min; 1 cycle at 98° C. for 10 min (for enzyme inactivation). The cycled plate was then transferred and read in the FAM and HEX channels using the Bio-Rad QX200 Droplet Reader (Bio-Rad Laboratories). ddPCR analysis is performed with the Bio-Rad QuantaSoft Pro Software.
To assess the efficiency of SluCas9 sgRNA pairs for inducing CTG repeat excision, Dual-cut screening was performed in which individual SluCas9 sgRNAs and recombinant SluCas9 protein were assembled into ribonucleoprotein (RNP) and delivered into primary DM1 patient myoblasts. Nucleofected myoblasts were treated with either DMSO (vehicle) or 3 μM of DNA-dependent Protein Kinase Inhibitor (DNA-PKi) Compound 6 for 48 hours. 72 hours post-nucleofection, myoblasts were subjected to either genomic DNA isolation or RNA foci staining by fluorescence in situ hybridization (FISH).
CRISPR repeat excision efficiency was assessed for each of the 88 pairs (FIG. 8A-B and Table 5). CTG repeat excision efficiency percentages are shown for vehicle (DMSO; white bars) and with DNA-PKi (black bars) (FIG. 8B and Table 5).

SluU10 + SluD68 (guide 1 CCCGTTGGAAGACTGAGTGCCC; guide 2 CCTGTAGCCTGTCAGCGAGTCG; guide RNA; listed as DNA, chemistry not fully specified)
% of CUG foci free nuclei (DNA-PKi) [1]: 89.5%
% of CUG foci free nuclei (Vehicle) [1]: 68.15%
Excision efficiency (by ddPCR) [2]: 61.29
Excision efficiency by ddPCR (Vehicle) [2]: 42.37

SluU10 + SluD73 (guide 1 CCCGTTGGAAGACTGAGTGCCC; guide 2 CCAAAACGTGGATTGGGGTTGT; guide RNA; listed as DNA, chemistry not fully specified)
% of CUG foci free nuclei (DNA-PKi) [1]: 88.46%
% of CUG foci free nuclei (Vehicle) [1]: 69.97%
Excision efficiency (by ddPCR) [2]: 64.77
Excision efficiency by ddPCR (Vehicle) [2]: 46.13

SluU10 + SluD83 (guide 1 CCCGTTGGAAGACTGAGTGCCC; guide 2 GTGGGGACAGACAATAAATACC; guide RNA; listed as DNA, chemistry not fully specified)
% of CUG foci free nuclei (DNA-PKi) [1]: 89.5%
% of CUG foci free nuclei (Vehicle) [1]: 74.17%
Excision efficiency (by ddPCR) [2]: 68.8
Excision efficiency by ddPCR (Vehicle) [2]: 47.63

SluU10 + SluD100 (guide 1 CCCGTTGGAAGACTGAGTGCCC; guide 2 GTCCAGAGCTTTGGGCAGATGG; guide RNA; listed as DNA, chemistry not fully specified)
% of CUG foci free nuclei (DNA-PKi) [1]: 88.24%
% of CUG foci free nuclei (Vehicle) [1]: 67.81%
Excision efficiency (by ddPCR) [2]: 64.25
Excision efficiency by ddPCR (Vehicle) [2]: 44.65

SluU21 + SluD06 (guide 1 GCTCGGAGCGGTTGTGAACTGG; guide 2 CCAGGCTGAGGCCCTGACGTGG; guide RNA; listed as DNA, chemistry not fully specified)
% of CUG foci free nuclei (DNA-PKi) [1]: 88.47%
% of CUG foci free nuclei (Vehicle) [1]: 48.27%
Excision efficiency (by ddPCR) [2]: 66.01
Excision efficiency by ddPCR (Vehicle) [2]: 46.6

SluU21 + SluD14 (guide 1 GCTCGGAGCGGTTGTGAACTGG; guide 2 ATGGGCAAACTGCAGGCCTGGG; guide RNA; listed as DNA, chemistry not fully specified)
% of CUG foci free nuclei (DNA-PKi) [1]: 89.6%
% of CUG foci free nuclei (Vehicle) [1]: 61.25%
Excision efficiency (by ddPCR) [2]: 63.05
Excision efficiency by ddPCR (Vehicle) [2]: 54.02

SluU21 + SluD18 (guide 1 GCTCGGAGCGGTTGTGAACTGG; guide 2 TGGAGGATGGAACACGGACGGC; guide RNA; listed as DNA, chemistry not fully specified)
% of CUG foci free nuclei (DNA-PKi) [1]: 89.21%
% of CUG foci free nuclei (Vehicle) [1]: 54.26%
Excision efficiency (by ddPCR) [2]: 65.52
Excision efficiency by ddPCR (Vehicle) [2]: 45.61

SluU21 + SluD32 (guide 1 GCTCGGAGCGGTTGTGAACTGG; guide 2 CTTGTGCATGACGCCCTGCTCT; guide RNA; listed as DNA, chemistry not fully specified)
% of CUG foci free nuclei (DNA-PKi) [1]: 88.76%
% of CUG foci free nuclei (Vehicle) [1]: 52.71%
Excision efficiency (by ddPCR) [2]: 70.09
Excision efficiency by ddPCR (Vehicle) [2]: 41.94

SluU21 + SluD34 (guide 1 GCTCGGAGCGGTTGTGAACTGG; guide 2 CGCGCCAGACGCTCCCCAGAGC; guide RNA; listed as DNA, chemistry not fully specified)
% of CUG foci free nuclei (DNA-PKi) [1]: 88.43%
% of CUG foci free nuclei (Vehicle) [1]: 56.01%
Excision efficiency (by ddPCR) [2]: 61.75
Excision efficiency by ddPCR (Vehicle) [2]: 42.16

SluU21 + SluD48 (guide 1 GCTCGGAGCGGTTGTGAACTGG; guide 2 GAGAGCAGCGCAAGTGAGGAGG; guide RNA; listed as DNA, chemistry not fully specified)
% of CUG foci free nuclei (DNA-PKi) [1]: 86.36%
% of CUG foci free nuclei (Vehicle) [1]: 51.76%
Excision efficiency (by ddPCR) [2]: 59.19
Excision efficiency by ddPCR (Vehicle) [2]: 36.66

SluU21 + SluD56 (guide 1 GCTCGGAGCGGTTGTGAACTGG; guide 2 CCAGCCGGCTCCGCCCGCTTCG; guide RNA; listed as DNA, chemistry not fully specified)
% of CUG foci free nuclei (DNA-PKi) [1]: 85.39%
% of CUG foci free nuclei (Vehicle) [1]: 31.9%
Excision efficiency (by ddPCR) [2]: 59.97
Excision efficiency by ddPCR (Vehicle) [2]: 25.94

SluU21 + SluD68 (guide 1 GCTCGGAGCGGTTGTGAACTGG; guide 2 CCTGTAGCCTGTCAGCGAGTCG; guide RNA; listed as DNA, chemistry not fully specified)
% of CUG foci free nuclei (DNA-PKi) [1]: 87.57%
% of CUG foci free nuclei (Vehicle) [1]: 51.5%
Excision efficiency (by ddPCR) [2]: 58.7
Excision efficiency by ddPCR (Vehicle) [2]: 35.67

SluU21 + SluD73 (guide 1 GCTCGGAGCGGTTGTGAACTGG; guide 2 CCAAAACGTGGATTGGGGTTGT; guide RNA; listed as DNA, chemistry not fully specified)
% of CUG foci free nuclei (DNA-PKi) [1]: 88.18%
% of CUG foci free nuclei (Vehicle) [1]: 51.12%
Excision efficiency (by ddPCR) [2]: 61.57
Excision efficiency by ddPCR (Vehicle) [2]: 36.17

SluU21 + SluD83 (guide 1 GCTCGGAGCGGTTGTGAACTGG; guide 2 GTGGGGACAGACAATAAATACC; guide RNA; listed as DNA, chemistry not fully specified)
% of CUG foci free nuclei (DNA-PKi) [1]: 89.23%
% of CUG foci free nuclei (Vehicle) [1]: 51.65%
Excision efficiency (by ddPCR) [2]: 63.44
Excision efficiency by ddPCR (Vehicle) [2]: 37.42

SluU21 + SluD100 (guide 1 GCTCGGAGCGGTTGTGAACTGG; guide 2 GTCCAGAGCTTTGGGCAGATGG; guide RNA; listed as DNA, chemistry not fully specified)
% of CUG foci free nuclei (DNA-PKi) [1]: 87.7%
% of CUG foci free nuclei (Vehicle) [1]: 48.33%
Excision efficiency (by ddPCR) [2]: 63.99
Excision efficiency by ddPCR (Vehicle) [2]: 36.68

SluU59 + SluD32 (guide 1 CGCGGCCGGCGAACGGGGCTCG; guide 2 CTTGTGCATGACGCCCTGCTCT; guide RNA; listed as DNA, chemistry not fully specified)
% of CUG foci free nuclei (DNA-PKi) [1]: 91.19%
% of CUG foci free nuclei (Vehicle) [1]: 69.23%
Excision efficiency (by ddPCR) [2]: 83.32
Excision efficiency by ddPCR (Vehicle) [2]: 57.23

SluU59 + SluD34 (guide 1 CGCGGCCGGCGAACGGGGCTCG; guide 2 CGCGCCAGACGCTCCCCAGAGC; guide RNA; listed as DNA, chemistry not fully specified)
% of CUG foci free nuclei (DNA-PKi) [1]: 89.01%
% of CUG foci free nuclei (Vehicle) [1]: 76.47%
Excision efficiency (by ddPCR) [2]: 71.96
Excision efficiency by ddPCR (Vehicle) [2]: 55.22

SluU59 + SluD48 (guide 1 CGCGGCCGGCGAACGGGGCTCG; guide 2 GAGAGCAGCGCAAGTGAGGAGG; guide RNA; listed as DNA, chemistry not fully specified)
% of CUG foci free nuclei (DNA-PKi) [1]: 87.28%
% of CUG foci free nuclei (Vehicle) [1]: 62.15%
Excision efficiency (by ddPCR) [2]: 65.89
Excision efficiency by ddPCR (Vehicle) [2]: 47.17

SluU59 + SluD56 (guide 1 CGCGGCCGGCGAACGGGGCTCG; guide 2 CCAGCCGGCTCCGCCCGCTTCG; guide RNA; listed as DNA, chemistry not fully specified)
% of CUG foci free nuclei (DNA-PKi) [1]: 84.48%
% of CUG foci free nuclei (Vehicle) [1]: 46.4%
Excision efficiency (by ddPCR) [2]: 55.14
Excision efficiency by ddPCR (Vehicle) [2]: 35.6
